# Where a name gives a salt, the structure may show the parent alone.
# Key:
# [1] = target: T1, αvβ3 from human A375 cells (Homo sapiens, UniProt P05106+P06756); test: αvβ3 echistatin SPA binding assay; details: purified αvβ3, labelled echistatin, WGA SPA beads
# T1 construct: αvβ3 from human A375 cells was purified; endogenous in cells; host or cells: human A375 cells; receptor purified from the cells and used detergent-solubilised
# Procedure: αvβ3 from human A375 cells was purified analogously to a procedure which was described by Wong et al. (Molecular Pharmacology, 50, 529-537 (1996)). 10 μl of αvβ3 (5 ng) in TBS pH 7.6, 2 mM CaCl2, 1 mM MgCl2, 1% n-octyl glucopyranoside (Sigma); 10 μl of test substance in TBS pH 7.6, 0.1% DMSO and 45 μl of TBS pH 7.6, 2 mM CaCl2, 1 mM MgCl2, 1 mM MnCl2 were in each case incubated at room temperature for 1 h. 25 μl of WGA SPA beads (Amersham, 4 mg/ml) and 10 μl of echistatin (0.1 μCi, Amersham, chloramine T-labelled) were then added in each case. After 16 hours at room temperature, the samples were measured in a scintillation measuring apparatus (Wallac 1450).
# [2] = target: αvβ3 receptor (Homo sapiens, UniProt P05106+P06756); details: disclosed in WO98/00395; cited from earlier work
# Chain of αvβ3 receptor (P06756 31-889 limits assumed): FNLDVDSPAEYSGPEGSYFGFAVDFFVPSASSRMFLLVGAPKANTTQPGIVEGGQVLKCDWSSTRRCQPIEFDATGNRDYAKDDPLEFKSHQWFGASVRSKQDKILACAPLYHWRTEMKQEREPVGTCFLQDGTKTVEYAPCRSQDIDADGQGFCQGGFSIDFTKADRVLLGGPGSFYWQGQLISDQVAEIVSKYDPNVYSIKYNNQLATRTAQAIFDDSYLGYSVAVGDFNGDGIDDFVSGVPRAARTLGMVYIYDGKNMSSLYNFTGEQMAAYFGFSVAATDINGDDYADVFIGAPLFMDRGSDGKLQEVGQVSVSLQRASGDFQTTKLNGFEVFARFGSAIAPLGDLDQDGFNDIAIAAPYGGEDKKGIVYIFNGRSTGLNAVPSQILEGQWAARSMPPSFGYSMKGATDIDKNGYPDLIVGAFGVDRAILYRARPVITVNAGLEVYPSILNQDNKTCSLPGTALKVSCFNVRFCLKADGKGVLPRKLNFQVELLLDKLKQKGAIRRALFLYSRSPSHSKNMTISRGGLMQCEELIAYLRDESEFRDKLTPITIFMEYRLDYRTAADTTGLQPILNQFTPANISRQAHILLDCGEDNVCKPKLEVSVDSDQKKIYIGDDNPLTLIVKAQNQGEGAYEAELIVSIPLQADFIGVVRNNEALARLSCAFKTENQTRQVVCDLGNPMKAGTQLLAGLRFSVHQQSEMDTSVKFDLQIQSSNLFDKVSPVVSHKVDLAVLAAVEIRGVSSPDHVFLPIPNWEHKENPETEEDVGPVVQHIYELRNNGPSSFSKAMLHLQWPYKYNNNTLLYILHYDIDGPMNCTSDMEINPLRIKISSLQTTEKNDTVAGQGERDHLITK
# Chain of αvβ3 receptor (P06756 891-1048 partner limits assumed): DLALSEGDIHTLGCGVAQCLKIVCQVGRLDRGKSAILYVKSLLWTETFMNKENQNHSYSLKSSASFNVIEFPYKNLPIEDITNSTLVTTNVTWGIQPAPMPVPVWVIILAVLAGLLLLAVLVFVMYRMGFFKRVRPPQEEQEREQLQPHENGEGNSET
# Chain of αvβ3 receptor (P05106 27-788): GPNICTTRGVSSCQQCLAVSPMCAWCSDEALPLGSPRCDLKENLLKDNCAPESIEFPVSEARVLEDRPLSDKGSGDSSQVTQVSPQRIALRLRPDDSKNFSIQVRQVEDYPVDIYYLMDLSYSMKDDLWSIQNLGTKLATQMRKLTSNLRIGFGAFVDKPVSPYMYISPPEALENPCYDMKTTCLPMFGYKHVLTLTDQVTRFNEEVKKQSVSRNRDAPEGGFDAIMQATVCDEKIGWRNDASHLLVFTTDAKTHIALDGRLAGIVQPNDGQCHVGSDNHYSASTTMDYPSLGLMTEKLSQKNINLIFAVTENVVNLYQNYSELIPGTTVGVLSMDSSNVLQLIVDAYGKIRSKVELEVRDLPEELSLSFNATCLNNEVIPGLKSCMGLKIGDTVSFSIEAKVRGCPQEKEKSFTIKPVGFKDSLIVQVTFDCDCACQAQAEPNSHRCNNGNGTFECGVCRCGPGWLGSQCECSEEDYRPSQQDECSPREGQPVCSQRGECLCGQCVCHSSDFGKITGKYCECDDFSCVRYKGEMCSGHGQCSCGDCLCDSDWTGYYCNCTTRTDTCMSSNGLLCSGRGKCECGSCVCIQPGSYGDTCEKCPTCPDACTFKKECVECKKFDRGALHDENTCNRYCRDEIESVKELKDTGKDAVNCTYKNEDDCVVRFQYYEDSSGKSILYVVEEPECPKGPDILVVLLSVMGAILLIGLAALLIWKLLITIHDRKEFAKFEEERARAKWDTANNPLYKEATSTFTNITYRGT
# T1 sequence (P06756 31-889 limits assumed): as the sequence (P06756 31-889 limits assumed) above
# T1 sequence (P06756 891-1048 partner limits assumed): as the sequence (P06756 891-1048 partner limits assumed) above
# T1 sequence (P05106 27-788): as the sequence (P05106 27-788) above
SMILES,IC50 [1] [nM],IC50 [2] [nM]
CC1(C)C2CCC1(CS(=O)(=O)NC(Cc1ccc(OCCCC(=O)NC(=N)N)cc1)C(=O)O)C(=O)C2 (stereo not shown) [(I)],–,0.13
"CCC(C(=O)NC(CC(=O)O)c1cccc(NS(=O)(=O)c2cccc(NC(=N)N)c2)c1)c1ccccc1 (mixture of isomers) [Example 7, 3-(3-[3-Guanidino-benzenesulphonylamino]-phenyl)-3-(2-phenylbutyrylamino)-propionic acid]",115,–
"N=C(N)Nc1cccc(S(=O)(=O)Nc2cccc(C(CC(=O)O)NS(=O)(=O)c3ccccc3)c2)c1 (stereo not shown) [Example 1, 3-Benzenesulphonylamino-3-[3-(3-guanidino-benzenesulphonylamino)-phenyl]-3-propionic acid, trifluoroacetic acid salt]",19,–
N=C(N)Nc1cccc(S(=O)(=O)Nc2cccc(C(CC(=O)O)NC(=O)Cc3ccc(Cl)cc3Cl)c2)c1 (stereo not shown) [Example 5],72.4,–
"N=C(N)Nc1cccc(C(=O)Nc2cccc(C(CC(=O)O)NS(=O)(=O)c3ccccc3)c2)c1 (stereo not shown) [Example 2, 3-Benzenesulphonylamino-3-[3-(3-guanidino-benzoylamino)-phenyl]-propionic acid, trifluoroacetic acid salt]",390,–
"Cc1cc(C)c(CC(=O)NC(CC(=O)O)c2cccc(NS(=O)(=O)c3cccc(NC(=N)N)c3)c2)c(C)c1 (stereo not shown) [Example 3, 3-(3-[3-Guanidinobenzenesulphonylamino]-phenyl)-3-(2,4,6-trimethylphenylacetylamino)-propionic acid, trfiluoroacetic acid salt]",153,–
"N=C(N)Nc1cccc(S(=O)(=O)Nc2cccc(C(CC(=O)O)NC(=O)CCc3ccccc3)c2)c1 (stereo not shown) [Example 6, 3-(3-[3-Guanidino-benzenesulphonylamino]-phenyl)-3-phenylpropionylamino-propionic acid]",36.2,–

# Further lines, with some results ahead:
IC50 [1] [nM],SMILES,IC50 [2] [nM]
12.8,"N=C(N)Nc1cccc(S(=O)(=O)Nc2cccc(C(CC(=O)O)NC(=O)c3ccccc3)c2)c1 (stereo not shown) [Example 4, 3-Benzoylamino-3-[3-(3-guanidino-benzenesulphonylamino)-phenyl]-propionic acid]",–
33,"N=C(N)Nc1cccc(COc2cccc(C(CC(=O)O)NS(=O)(=O)c3ccccc3)c2)c1 (stereo not shown) [Example 8, 3-Benzenesulphonylamino-3-[3-(3-guanidino-benzyloxy)-phenyl]-propionic acid]",–
0.295,O=C(O)CC(NS(=O)(=O)c1ccccc1)c1cccc(NS(=O)(=O)c2cccc(NC3=NCCN3)c2)c1 (stereo not shown) [Example 9],–
